Drawing on the METLIN SMRT retention time set (Domingo-Almenara et al. 2019), this text covers RP-LC retention time for 79 compounds.

The data set is described as follows: gradient 5% acetonitrile 3 min, to 50% in 2 min, to 85% in 15 min, held 3 min, 100 µL/min. To be noted: column: Zorbax Extend-C18 2.1 x 50 mm; eluents: water / acetonitrile, 0.1% formic acid. In short, it runs like this: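 Over 3 months, pure standards in mixtures of ~100 molecules were run by HPLC coupled to a quadrupole time-of-flight mass spectrometer in positive and negative ionization mode. The column was a Zorbax Extend-C18 (2.1 × 50 mm, 1.8 μm) at 100 μL/min, eluted with water and acetonitrile each holding 0.1% formic acid, with 40 μL dead and 900 μL dwell volumes. Retention time was determined from adduct peaks chosen by software and checked manually.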
`COc1ccc(S(=O)(=O)N2CCC(n3cnnc3-c3ccccc3)CC2)cc1`: the RP-LC retention time was 783 s. Compound `CN1C(=O)C2(CCN(C(=O)c3ccc(C#N)cc3)C2)c2ccccc21` (centres undefined) returned an RP-LC retention time of 725 s. Next, `COC(=O)C1=CN(c2ccc(Br)cc2)c2cc(F)ccc2S1(=O)=O`: 939 s; `COC(=O)c1ccc(NC(=O)Cc2csc(NC(=O)c3ncccn3)n2)cc1`: 642 s. In turn, `O=C(C1CCCN(c2nccnc2Oc2ccccc2)C1)N1CCN(c2cccc(Cl)c2)CC1` (centres undefined) returned an RP-LC retention time of 1180 s. As to `COC(=O)c1c(NCc2ccc(F)cc2F)c2cc(F)ccc2[nH]c1=O`, the RP-LC retention time is 769 s. On to `CCc1cc(=O)n(CC(=O)Nc2ccc3c(c2)OCCO3)c(-c2cccc(F)c2)n1`, for which the RP-LC retention time was determined as 1090 s. On to `CCOc1ccccc1NC(=O)Cn1ccnc1-c1ccnc(N2CCOCC2)c1`, for which the RP-LC retention time was 638 s. Compound `CN(C)c1ncncc1N1CCC(C(=O)NCCC2=CCCCC2)CC1` had an RP-LC retention time of 679 s.

For `CC1CCN(S(=O)(=O)c2ccc3nn(CCOc4ccc(F)cc4)c(=O)n3c2)CC1`, the RP-LC retention time worked out at 1340 s. The compound `O=S(=O)(c1cccc2nsnc12)N1CCCn2nc(-c3cccnc3)cc2C1` displayed an RP-LC retention time of 627 s. `Cn1c(CC2CCN(S(=O)(=O)Cc3cccc(Cl)c3)C2)nc2cccnc21` (centres undefined) returned an RP-LC retention time of 656 s. Compound `CN1c2cc(C(=O)NCc3ccccc3Br)ccc2C(=O)N2CCCCC21` (centres undefined) yielded an RP-LC retention time of 860 s. Next, `O=C(NC1CCCC1)C1c2ccccc2CC(=O)N1Cc1ccccc1` (centres undefined): 856 s; `CCOc1ccc(C(c2c(O)cc(C)n(CCOC)c2=O)N2CCN(c3ccccn3)CC2)cc1` (centres undefined): 728 s.

Consider `CCN1CCn2cc(S(=O)(=O)Nc3ccc(OC)c(Cl)c3)cc2C1=O`, for which the RP-LC retention time was determined as 730 s. `O=C1COc2ccc(S(=O)(=O)N3CCC(C(=O)Nc4cccc(Br)c4)CC3)cc2N1`: the RP-LC retention time is 859 s. In turn, `O=C(NCCc1ccc(F)cc1)C1CC(=O)N(CCc2c[nH]c3ccc(Cl)cc23)C1` (centres undefined) yielded an RP-LC retention time of 830 s. `O=C([C@@H]1C[C@H](F)CN1C(=O)C1(c2ccccc2)CC1)N1CCOCC1` came in with an RP-LC retention time of 639 s.

The compound `O=C(CN1CCC(c2nc(-c3cccs3)no2)CC1)NCc1ccccc1` gave an RP-LC retention time of 672 s. Consider `COC(=O)c1c(C)[nH]c(C(=O)N2CCC(CC(=O)NCc3ccc(OC)cc3)CC2)c1C`, for which the RP-LC retention time was 715 s.

In the case of `CCCCNC(=O)c1nc(Nc2ccc(C)cc2)c2ccccc2n1`, the RP-LC retention time was found to be 831 s. Regarding `Cc1cc(C)n(Cc2nc(-c3ccc(NC(=O)c4ccc(C#N)cc4)cc3)oc2C)n1`, the RP-LC retention time amounted to 870 s. With `COc1ccc(OCC(=O)Nc2ccc3c(c2)N(C(=O)c2ccco2)CCC3)cc1`, the RP-LC retention time worked out at 861 s. For the compound `CN(C)C(=O)c1ccc2c(c1)CCN2C(=O)C1CCC1`, the RP-LC retention time was found to be 700 s. In the case of `O=S(=O)(NC1CCCCCC1)c1ccc(-c2nnc(C3CCCC3)o2)o1`, the RP-LC retention time was found to be 1080 s.

As for `CCn1c(=O)c2c(cc(C)n2C)n(CC(=O)Nc2ccc(F)cc2)c1=O`, the RP-LC retention time came out at 780 s. As to `CCOC(=O)c1sc(NC(=O)c2ccccc2F)nc1-c1ccccc1`, the RP-LC retention time was 1100 s. For the compound `Cc1ccc(C(=O)NCc2ccc3c(c2)nnn3C)cc1`, the RP-LC retention time turned out to be 693 s. Next, `CCOc1ccccc1CNC(=O)CCc1nnc2c3cc(-c4ccc(OC)cc4)nn3ccn12`: 797 s; `O=C(Nc1ccccc1F)C1CCc2nc(N3CCOCC3)ncc2C1` (centres undefined): 778 s; `O=C(c1ccco1)N1[C@H]2CC[C@@H]1c1cnc(-c3ccc(F)cc3)nc1C2`: 858 s. Compound `CCC1CN2C=NC(N3CCN(C(=O)c4ccoc4)CC3)=CC2=N1` (centres undefined) showed an RP-LC retention time of 575 s. The compound `CN(C)c1cccc(C(=O)NCc2[nH]nc3ccccc23)c1` had an RP-LC retention time of 580 s. Compound `Cc1ccc(-n2nnc(-c3noc(C)n3)c2C)cc1` had an RP-LC retention time of 836 s. Compound `COC(=O)c1ccc(Cl)cc1NC(=O)N1CCCn2nc(-c3cccnc3)cc2C1` had an RP-LC retention time of 758 s. `CCCC(NC(=O)C1CCCN(c2ccc(=O)n(-c3ccc(C)c(Cl)c3)n2)C1)c1cccs1` (centres undefined) registered an RP-LC retention time of 1040 s. Turning to `Fc1ccc(CN2CCC(Cc3nc(-c4cccnc4)n[nH]3)C2)c(F)c1` (centres undefined), the RP-LC retention time was determined as 564 s.

`Cc1cnn(Cc2nc(-c3ccc(NC(=O)CC4CCCC4)cc3)oc2C)c1`: the RP-LC retention time turned out to be 930 s.

Turning to `Cc1nc(CSc2nc3cc([N+](=O)[O-])ccc3s2)cs1`, the RP-LC retention time is 916 s.

The compound `O=C(Cc1csc2nc(-c3ccccc3)cn12)N1CCN(c2cccc(Cl)c2)CC1` came in with an RP-LC retention time of 949 s. `O=C(NCC1(N2CCOCC2)CCOC1)Nc1ccccc1C(F)(F)F` (centres undefined): the RP-LC retention time worked out at 596 s. `Cc1cccc(NC(=O)CN2C(=O)NC3(CCCCC3)C2=O)c1C` had an RP-LC retention time of 765 s. `Clc1ccc(-c2nc(N3CCCCCC3)c3ccccc3n2)cc1`: the RP-LC retention time came out at 847 s.

Compound `CC(=O)N1CCc2ccc(C(=O)N3CCOCC3)cc21` gave an RP-LC retention time of 602 s. Turning to `COc1ccc(NC(=O)Cn2c(C)nc3c(sc4nc(-c5ccccc5)ccc43)c2=O)cc1OC`, the RP-LC retention time turned out to be 938 s. For `O=C(Cn1cccc1-c1nnc(C2CC2)o1)NCc1ccccc1Cl` the value was 815 s. As to `CCn1cc(-c2nc(CC(=O)Nc3ccccc3Cl)cs2)c2cccnc21`, the RP-LC retention time worked out at 1050 s. Turning to `COc1ccccc1NC(=O)CSc1nnc2c3cc(-c4ccc(F)cc4)nn3ccn12`, the RP-LC retention time came to 897 s.

Regarding `O=C(CCCc1nc(-c2cccnc2)no1)Nc1nc(-c2ccccc2)cs1`, the RP-LC retention time was determined as 865 s. `Cn1c(=O)c2ccn(CC(=O)Nc3cccc(C(F)(F)F)c3)c2n(C)c1=O`: the RP-LC retention time was found to be 705 s.

`COc1ccc(CCS(=O)(=O)NCC2(c3ccc(F)cc3)CC2)cc1`: the RP-LC retention time worked out at 950 s. For the compound `Cn1c(=O)c(C(=O)N2CCCC2)nc2ccccc21`, the RP-LC retention time was found to be 622 s.

On to `CCN1C(=O)c2cccnc2Sc2cc(C(=O)NC3CCCCC3)ccc21`, for which the RP-LC retention time turned out to be 826 s.

`CC1=C(c2ccc(C(C)C)cc2)S(=O)(=O)N=C1N1CCC(C(=O)NCCN2CCCC2)CC1` yielded an RP-LC retention time of 693 s.

`CCC(C(=O)NCc1ccco1)n1c2ccccc2c2cnn(C)c(=O)c21` (centres undefined) yielded an RP-LC retention time of 777 s. The compound `O=C(c1ccc(F)cc1)N1CCCC(c2nnc(-c3ccccc3)o2)C1` (centres undefined) showed an RP-LC retention time of 819 s. As for `COc1ccc(N2CCN(c3ccc(-c4nc(-c5cccc(F)c5)no4)cn3)CC2)cc1`, the RP-LC retention time was determined as 1310 s. As for `COc1ccc(NC(=O)c2c(O)c3cccnc3n(-c3cccc(F)c3)c2=O)cc1Cl`, the RP-LC retention time amounted to 1280 s. Turning to `CCN1CCN(CCNC(=O)c2csc(-c3ccc(N4CCCC4)nc3)n2)CC1`, the RP-LC retention time stood at 550 s.

Turning to `Cc1nc2c(C(=O)NCCN3CCOCC3)cnn2c(C)c1Cc1ccccc1Cl`, the RP-LC retention time was found to be 678 s.

For the compound `CCc1ccccc1S(=O)(=O)NCC(c1cccnc1)c1cn(C)c2ccccc12` (centres undefined), the RP-LC retention time was determined as 787 s.

For the compound `COC(=O)c1ccc(CN2CCN(c3cnn4cnnc4c3)CC2)cc1`, the RP-LC retention time stood at 548 s. In turn, `CCc1noc(NC(C)=O)c1-c1ccc(C)c(S(=O)(=O)N2CC=C(c3ccccc3)CC2)c1` gave an RP-LC retention time of 1020 s. In turn, `Cc1ccc(-c2noc(C3CCCN3S(=O)(=O)c3ccc(Cl)cc3C)n2)cc1` (centres undefined) displayed an RP-LC retention time of 1320 s. `NC(=O)C1CCN(C(=O)Cc2csc(NC(=O)Nc3ccc(Cl)cc3)n2)CC1` returned an RP-LC retention time of 684 s. Next, `O=S(=O)(c1cccnc1)N1CC(c2nc(-c3ccncc3)no2)C1`: 663 s; `COc1ccc(NC(=O)NCCCn2c(C(F)(F)F)nc3cccnc32)cc1OC`: 708 s; `CC1(C(=O)NCc2ccc(F)cc2)Cn2cnc(C(=O)NC3CCCCC3)c2C(=O)N1C1CC1` (centres undefined): 765 s. Regarding `CC(C)CN1C(=O)c2cccn2CC1C(=O)NCc1cccs1` (centres undefined), the RP-LC retention time amounted to 754 s. For `COc1cccc(CNS(=O)(=O)c2ccc3c(c2)CCCC(=O)N3)c1` the value was 714 s; for `CN(C)CCCCN1CCc2c(n(C)c3ccccc23)C1=O`, 650 s. `Cc1oc(-c2ccc(C(=O)N3CCN(c4ccccn4)CC3)cc2)nc1CN1CCc2ccccc21` gave an RP-LC retention time of 766 s.

On to `CCN1C(=O)c2c(C(=O)NCc3ccc(Cl)cc3)ncn2CC1(C)C(=O)NC1CCCC1` (centres undefined), for which the RP-LC retention time stood at 798 s. For `CNC(=O)CCNc1c(-c2cccc(F)c2)nc2cnccn12` the value was 606 s; for `Cc1ccccc1Oc1nccn2c(=O)n(CC(=O)Nc3ccccc3F)nc12`, 853 s. Consider `Cc1nc2cc(N3CCCC(C(=O)Nc4ccc5c(c4)OCO5)C3)cnc2nc1C` (centres undefined), for which the RP-LC retention time came to 695 s.

On to `COc1ccc(-c2noc(C3CCCN3C(=O)COc3ccccc3)n2)cc1` (centres undefined), for which the RP-LC retention time stood at 936 s. Turning to `COc1ccc(-c2noc(C3CC(=O)N(c4ccc(C)c(C)c4)C3)n2)c(OC)c1` (centres undefined), the RP-LC retention time is 932 s.
